Key:
[1] = tested on: GH3 cells stably expressing HER2CA; assay: Realtime PCR of PRL and GH mRNA in GH3 stable transfectants; format: cell-based, rat; details: for suppression of PRL expression: Her2CA-GH3 cells
Method: A. […] C. GH and PRL secretion in the culture medium determined by RIA. Hormone secretion levels were normalized for cell numbers, Values are mean±SEM. *p<0.05, **p<0.01. […] GH3 rat lacto-somatotroph tumor cells secreting PRL and GH were purchased from the American Type Culture Collection. HER2CA cells were generated by transfection with […]) purchased from Addgene (Addgene plasmid 16259). Stable colonies were selected in the presence of 500 μg/ml G418 (Invitrogen). A vector control cell line pcDNA3 was simultaneously established by transfecting pcDNA3 that lacked inserted cDNA. […] After synchronization by serum starvation (medium containing 0.2% bovine serum albumin for 24 h), cells with treatment agents was grown in fresh serum-depleted medium (0.2% bovine serum albumin), and samples collected at the indicated times. Total RNA was extracted with Trizol reagent (Invitrogen) according to instructions of the manufacturer. The amount and the integrity of RNA were assessed by measurement of absorbance at 260 and 280 nm. Total RNA was reverse-transcribed into first-strand cDNA using iScript cDNA synthesis kit (Bio-Rad Laboratories, Inc.) according to the manufacturer. Quantitative PCR reactions were carried out in the iQ5 Multicolor Real-time PCR Detection System (Bio-Rad Laboratories, Inc.) as described (8). […] Primer sequences (Invitrogen) were [NT] rRNA forward ([…] rRNA reverse ([NT] (human (3-actin [NT] (human (3-actin […]).

[2] = tested on: GH3 cells stably expressing HER2CA; assay: Soft agarose colony-forming assay, HER2CA transfectants; format: cell-based, rat; details: for suppression of colony formation in soft agar: Her2CA-GH3 cells
Method: B. GH3 cells stably expressing HER2CA or pcDNA3 were plated (4,000 per well) in 96 well plates for the indicated times, and WST assay performed. C. […] Values are mean±SEM. *p<0.05, ** p<0.01, ^‡p<0.05 vs pcDNA3 control, ^†p<0.05 vs HER2CA control, ^‡‡p<0.05 vs pcDNA3 control, ^††p<0.05 vs HER2CA control.
Base layers consisting of growth medium containing 0.6% low-melting point agarose (Invitrogen) were poured onto 6-well plates and allowed to solidify. Cells (8×10^3 per well) were plated in triplicate in top layers consisting of growth medium containing 0.3% agarose. Seven to ten days later, cells were stained with 0.2% iodonitrotetrazolium chloride (Invitrogen), and colonies composed of 50 cells were counted manually in 5 randomly selected fields.

HER2CA GH3 tumors = assay: HER2CA GH3 subcutaneous tumors in Wistar-Furth rats; format: in vivo, rat; details: for suppression of postmortem tumor weight / suppression of serum PRL levels / HER2CA tumor volume: Wistar-Furth rats; for suppression of postmortem tumor weight / suppression of serum PRL levels: 100 mg/kg daily oral gavage; for HER2CA tumor volume: 100 mg/kg daily oral gavage from day 3 after inoculation, vehicle 924±48
Method: B-C. […] (B). Tumor weights were measured after euthanasia (C). Serum PRL levels were measured by RIA (D), and ex vivo Realtime PCR performed (E). Tumor volumes were calculated using the formula, π/6×large diameter×small diameter^2.
In accordance with Institutional Animal Care and Use Committee guidelines, 4-5 wk old female Wistar-Furth rats (Harlan Sprague Dawley, Inc.) were inoculated with pcDNA3 (n=6) or HER2CA (n=6) cells (3×10^6 cells/rat). Rats were fed with a commercial pelleted diet ad libitum and tap water. Tumor volumes were measured with a caliper and calculated using the formula, π/6×large diameter×small diameter^2 as previously described (8). […] 500 μl blood was collected twice for hormone assessment (before inoculation, 2 days after inoculation) by retro-orbital bleeding. This procedure was performed under isoflurane inhalational anesthesia via a nose cone connected to a rodent anesthesia machine (Kent Scientific Corporation). On the last treatment day (day 7), rats were euthanized within 3 h of drug administration. Cardiac blood was collected with 18-gauge syringes and tumors excised and weighed. Fragments of each tumor were fixed in formalin and embedded in paraffin for immunohistochemical staining, preserved in RNA later solution (Ambion) for subsequent RNA extraction and frozen in liquid nitrogen for subsequent protein extraction.
To evaluate in vivo effects of HER2 overexpression on lactosomatotroph tumor growth, HER2CA or pcDNA3 transfectants were inoculated subcutaneously into female Wistar-Furth rats. […] Next, the effects of lapatinib administration on tumor growth and hyperprolactinemia were examined. […] After euthanasia, tumors were excised and immediately weighed and processed.

human prolactinoma cells [3] = assay: RIA of PRL in culture media of primary human prolactinoma cell cultures; format: cell-based; details: for suppression of PRL secretion into the culture medium: 24 hr
Method: (§1) A, B, D, and E. After trans-sphenoidal surgery of human prolactinomas, tumor cells were cultured. […] PRL levels in culture media were measured using RIA (B). H&E and PRL staining of tumor and confocal immunocytochemistry of EGFR and HER2 (Tumor A) (C), or for Tumor B (F). Magnification of these figures was 100×. […] PRL levels in culture media were measured using RIA (E). Prolactinoma cells (Tumor B) were treated with U0126 (0.1-5 μM) for 24 hr, and Realtime PCR of PRL performed (G).
(§2) Human prolactinoma tissues were obtained at the time of surgery (Pituitary Center, Cedars-Sinai Medical Center) and transferred in 0.3% BSA containing DMEM according to an IRB-approved protocol. After washing with medium, tumor tissues were chopped with a sterile scalpel into approximately 1-2 mm pieces. Tissues were rinsed and digested with DMEM containing 0.3% BSA, 0.35% collagenase, and 0.15% hyaluronidase at 37° C. for 30 min The mixture was centrifuged at 1,500 rpm for 5 min at 4° C., and the cell pellet resuspended in an appropriate volume of culture medium containing 10% FBS and antibiotics in 48 well plates. After 24 hr incubation with serum depleted starvation medium (DMEM with 0.3% BSA), treatment agents were added with fresh serum-depleted medium (0.3% BSA), and medium collected for RIA. RNA was extracted after 24 hr treatment. Medium was also collected at baseline. To normalize for cell number effect, the PRL value of treated medium was divided by that of pre-treatment starvation medium to obtain a treated value for each well (n=4).

human prolactinoma cells [4] = assay: Realtime PCR of PRL in primary human prolactinoma cell cultures; format: cell-based; details: for suppression of PRL mRNA levels: 24 hr
Method: as §1
Total RNA was extracted with Trizol reagent (Invitrogen) according to instructions of the manufacturer. The amount and the integrity of RNA were assessed by measurement of absorbance at 260 and 280 nm. Total RNA was reverse-transcribed into first-strand cDNA using iScript cDNA synthesis kit (Bio-Rad Laboratories, Inc.) according to the manufacturer. Quantitative PCR reactions were carried out in the iQ5 Multicolor Real-time PCR Detection System (Bio-Rad Laboratories, Inc.) as described (8). Certified RT^2 primer assays for rat GH, PRL and human PRL were purchased from SuperArray. Primer sequences (Invitrogen) were 5′-[…]-3′ (18S rRNA forward (F)), 5′-[…]-3′ (18S rRNA reverse (R)), 5′-[…]-3′ (human (3-actin F), 5′-[…]-3′ (human (3-actin R), 5′-[…]-3′ (human GAPDH F), 5′-[…]-3′ (human GAPDH R).
as §2

[5] = Tumor A, lapatinib 0.1-10 μM or gefitinib 10 μM
[6] = human primary prolactinoma tumor cell cultures, tumor not named

Row | SMILES | suppression of PRL expression [1] | suppression of colony formation in soft agar [2] | suppression of postmortem tumor weight (HER2CA GH3 tumors) | suppression of serum PRL levels (HER2CA GH3 tumors) | HER2CA tumor volume (HER2CA GH3 tumors) | suppression of PRL secretion into the culture medium (human prolactinoma cells [3]; [5]) | suppression of PRL secretion into the culture medium (human prolactinoma cells [3]; Tumor B, 0.01-10 μM) | suppression of PRL mRNA levels (human prolactinoma cells [4]; [5]) | suppression of PRL mRNA levels (human prolactinoma cells [4]; Tumor B, 0.01-10 μM) | PRL mRNA levels ([1]; HER2CA GH3 cells, 1 μM) | colony formation in soft agar ([2]; HER2CA GH3 cells, 0.1-10 μM every third day) | change in Her2CA-GH3 tumor size (HER2CA GH3 tumors; rats, after one week of treatment) | suppression of human PRL secretion (human prolactinoma cells [3]; [6]) | suppression of human PRL mRNA expression (human prolactinoma cells [4]; [6])
1 | COc1cc2ncnc(Nc3ccc(F)c(Cl)c3)c2cc1OCCCN1CCOCC1 [gefitinib] | ~50% | ~50% | ~30% | ~40% | 695±63 mm^3 | ~50% | ~40% | no effect | ~45% |  |  |  |  | 
2 | CS(=O)(=O)CCNCc1ccc(-c2ccc3ncnc(Nc4ccc(OCc5cccc(F)c5)c(Cl)c4)c3c2)o1 [lapatinib, Lapatinib] | ~70% | ~80% | ~40% | ~50% | 549±45 mm^3 | ~70% | ~60% | ~90% | ~45% | more marked suppression | fewer HER2CA colonies | −40% | ~70% | ~80%

Reference: patent publication US20120308567A1, “USE OF TYROSINE KINASE INHIBITORS FOR TREATMENT OF PROLACTINOMA” (CEDARS-SINAI MEDICAL CENTER, priority 2010, published 2012)
